For the first test, the system named is HCT116 colon cancer cells. Kind of test: KSP Cellular Assay (percent of cells staining positive for Phos-Histone H3 / Phos-MPM2). Type of test: cell-based. The conditions noted are these: Homo sapiens, HCT-116, 16 h, Table 101; HCT116 cells, 16 hours with drug; read-out: ED50 (nM) Range. The procedure:
HCT116 colon cancer cells were grown in DMEM:F12 media with 10% heat inactivated FBS at 37 degrees with 5% CO2. Cells were plated at 7,500 cells per well in PDL coated 384-well tissue culture plates. 6 hours later media was removed and new media containing drug was added. Cells were incubated with drug for 16 hours. All further steps were performed at room temperature in the dark. Cells were fixed with 25 ul/well Prefer fixation solution plus 250 nM Hoechst dye and incubated for 30 minutes. The fixation solution was removed and cells were washed with PBS. Cells were then permeabilized with 25 ul/well 0.2% Triton-X in PBS and incubated for 10 minutes. Cells were washed with PBS and then incubated with 25 ul/well PBS containing 3% FBS for 30 minutes. Cells were then stained overnight at 4 degrees with 25 ul/well antibody solution in PBS plus 3% FBS. Antibodies used were Phos-Histone H3 (ser10)-Alexa Flur 488 Conjugate and Phos-MPM2 Texas Red Conjugate. Cells were washed with PBS and then immunofluorescence images captured with HT Pathway microscope. The percent of cells staining positive was calculated and EC50 values for the compounds of the invention that were tested were determined using Excel XLfit.
EC50 Determinations: Dose-response curves were plotted from inhibition data generated each in duplicate, from 8 point serial dilutions of inhibitory compounds. Concentration of compound was plotted against enzyme activity (OD reading). To generate EC50 values, the dose-response curves were then fitted to a standard sigmoidal curve and EC50 values were derived by nonlinear regression analysis.
With `CC(=O)N1CCC2(CC1)CC1(SC(c3cc(F)ccc3F)=NN1C(C)=O)c1ccccc1O2` (stereo not shown) [compound 126], the EC50 was over 1000 nM.
With `CC(=O)N1N=C(c2cc(F)ccc2F)SC12CCCc1cccnc12` (stereo not shown) [compound 124], the EC50 is over 1000 nM.
With `CC(=O)N1N=C(c2cc(F)ccc2F)SC12CC(C)Oc1ccc(F)cc12` (stereo not shown) [compound 115], the EC50 was over 1000 nM.
For the compound `CC(=O)N1N=C(c2cc(F)ccc2F)SC12C(=O)Nc1ccccc12` (stereo not shown) [compound 127], the EC50 was over 1000 nM.
Take `CC(=O)N1N=C(c2cc(F)ccc2F)SC12CCN(C(C)=S)c1ccccc12` (stereo not shown) [compound 114]: the EC50 was over 1000 nM.
Still for that read-out and setting: under `CC(=O)N1N=C(c2cc(F)ccc2F)SC12CCN(C)c1ccccc12` (stereo not shown) [compound 111] stands over 1000 nM; under `CC(=O)N1N=C(c2cc(F)ccc2F)SC12CCCc1sccc12` (stereo not shown) [compound 103], over 1000 nM; under `CC(=O)N1N=C(c2cc(F)ccc2F)SC12CCc1ccccc12` (stereo not shown) [compound 105], at most 500 nM.
In the case of `CC(=O)N1CCC2(SC(c3cc(F)ccc3F)=NN2C(C)=O)c2ccccc21` (stereo not shown) [compound 112], the EC50 was over 1000 nM.
In the case of `CC(=O)N1N=C(C2=C(F)CCC(F)=C2)SC12Cc1ccccc12` (stereo not shown) [compound 120], the EC50 was at most 500 nM.

The same test, now with this note: Homo sapiens, HCT-116, 16 h, Table 401; HCT116 cells, 16 hours with drug; read-out: ED50 (nM) Range.
In the case of `NC(=O)CCC(=O)N1N=C(c2cc(F)ccc2F)SC12CCOc1ccccc12` (stereo not shown) [compound 488], the EC50 was over 500 nM.
With `N[C@H]1C[C@H](C(=O)N2N=C(c3cc(F)ccc3F)SC23CCc2ccccc23)C1` (stereo partly shown) [compound 502], the EC50 is at most 500 nM.
The same measure, in the same setting: with `O=C(CCCN1CCCCC1)N1N=C(c2cc(F)ccc2F)SC12CCOc1ccccc12` (stereo not shown) [compound 494] the figure was at most 500 nM; with `O=C(CC1CCCNC1)N1N=C(c2cc(F)ccc2F)SC12CCc1ccccc12` (stereo not shown) [compound 446], 500 to 1000 nM.
As to `COC(C)C(=O)N1N=C(c2cc(F)ccc2F)SC12CCc1ccccc12` (stereo not shown) [compound 441], the EC50 was at most 500 nM.
With `C[C@H](O)C(=O)N1N=C(c2cc(F)ccc2F)SC12CCc1ccccc12` (stereo partly shown) [compound 436], the EC50 was at most 500 nM.
The same measure, in the same setting: under `N[C@H](C(=O)N1N=C(c2cc(F)ccc2F)SC12CCCc1sccc12)C1CC1` (stereo partly shown) [compound 417] stands over 1000 nM; under `O=C(Cc1cccnc1)N1N=C(c2cc(F)ccc2F)SC12CCOc1ccccc12` (stereo not shown) [compound 484], 500 to 1000 nM; under `O=C1CCCN1CCCC(=O)N1N=C(c2cc(F)ccc2F)SC12CCc1ccccc12` (stereo not shown) [compound 455], 500 to 1000 nM.
As to `CC(C)[C@H](O)C(=O)N1N=C(c2cc(F)ccc2F)SC12CCCc1sccc12` (stereo partly shown) [compound 409], the EC50 was over 1000 nM.
The same measure, in the same setting: under `N[C@H]1C[C@@H](C(=O)N2N=C(c3cc(F)ccc3F)SC23CCc2ccccc23)C1` (stereo partly shown) [compound 501] stands at most 500 nM.
The same measure, in the same setting: with `O=C(c1ccccn1)N1N=C(c2cc(F)ccc2F)SC12CCOc1ccccc12` (stereo not shown) [compound 432] the figure was over 1000 nM.
`CC(C)C(=O)N1N=C(c2cc(F)ccc2F)SC12CCOc1ccccc12` (stereo not shown) [compound 467]: the EC50 was over 1000 nM.
As to `O=C([C@@H]1CCCCN1)N1N=C(c2cc(F)ccc2F)SC12CCCc1ccsc12` (stereo partly shown) [compound 425], the EC50 was over 1000 nM.
As to `N[C@H](C(=O)N1N=C(c2cc(F)ccc2F)SC12CCSc1ccccc12)C1CC1` (stereo partly shown) [compound 415], the EC50 was over 1000 nM.
`O=C([C@@H]1CCCCN1)N1N=C(c2cc(F)ccc2F)SC12CCSc1ccccc12` (stereo partly shown) [compound 403]: the EC50 was over 1000 nM.
For `NC(=O)CCC(=O)N1N=C(c2cc(F)ccc2F)SC12CCc1ccccc12` (stereo not shown) [compound 444], the EC50 was at most 500 nM.

Still in this test, the particulars now being: Homo sapiens, HCT-116, 16 h, Table 601; HCT116 cells, 16 hours with drug; read-out: EC50 (nM) Range.
Take `CN(C)C(=O)N1N=C(c2cc(F)ccc2F)SC12CCc1ccccc12` (stereo not shown) [compound 602]: the EC50 lay within 500 to 1000 nM.

The same test, now with this note: Homo sapiens, HCT-116, 16 h, Table 801; HCT116 cells, 16 hours with drug; read-out: EC50 (nM) Range.
Turning to `CC(=O)N1N=C(c2cc(F)ccc2F)S[C@]12c1cc(F)ccc1OC[C@@H]2CCN` [compound 802], the EC50 was over 1000 nM.
Regarding `CC(=O)N1N=C(c2cc(F)ccc2F)S[C@]12c1cc(F)c(F)cc1OC[C@@H]2CCN` [compound 808], the EC50 is over 1000 nM.
Still for that read-out and setting: under `CC(=O)N1N=C(c2cc(F)ccc2F)S[C@]12c1ccccc1OC[C@H]2CCN` [compound 817] stands at most 500 nM.
Consider `CC(=O)N1N=C(c2cc(F)ccc2F)S[C@@]12c1cc(F)ccc1OC[C@H]2CCN` [compound 801], for which the EC50 is at most 500 nM.
Still for that read-out and setting: with `CC(=O)N1N=C(c2cc(F)ccc2F)S[C@@]12c1cc(Cl)ccc1OC[C@H]2CCN` [compound 811] the figure was at most 500 nM; with `CC(=O)N1N=C(c2cc(F)ccc2F)S[C@]12c1cc(Cl)ccc1OC[C@@H]2CCN` [compound 812], over 1000 nM.

Staying with this test, now noted: Homo sapiens, HCT-116, 16 h, Table 1201 (Example 1201); HCT116 cells, 16 hours with drug; read-out: EC50 (nM) Range.
`CCNCC[C@@H]1COc2ccccc2[C@@]12SC(c1cc(F)ccc1F)=NN2C(C)=O` [compound 1202]: the EC50 is at most 500 nM.
On to `CC(=O)N1N=C(c2cc(F)ccc2F)S[C@@]12c1ccccc1OC[C@H]2CCNC(C)C` [compound 1203], for which the EC50 was at most 500 nM.

Still in this test, the particulars now being: Homo sapiens, HCT-116, 16 h, table of Example 1001; HCT116 cells, 16 hours with drug; read-out: EC50 (nM) Range.
For the compound `CC(=O)N1N=C(c2cc(F)ccc2F)S[C@]12c1ccccc1OC[C@@H]2CCCO` (single isomer, unassigned) [compound 1003], the EC50 is over 1000 nM.

The same test, now with this note: Homo sapiens, HCT-116, 16 h, table of Example 1004; HCT116 cells, 16 hours with drug; read-out: EC50 (nM) Range.
On to `CC(=O)N1N=C(c2cc(F)ccc2F)S[C@]12c1ccccc1OC[C@@H]2CCCN` [compound 1005], for which the EC50 is over 500 nM.

The test is the same for the next values; noted with them: Homo sapiens, HCT-116, 16 h, table of Example 1801 (headed Table 1201); HCT116 cells, 16 hours with drug; read-out: EC50 (nM) Range.
`CC(=O)N1N=C(c2cccc(F)c2)S[C@@]12c1ccccc1OC[C@H]2CCN` [compound 1810]: the EC50 is at most 500 nM.
For `CC(=O)N1N=C(c2ccc(F)cc2F)S[C@]12c1cc(F)ccc1OC[C@@H]2CCN` [compound 1822], the EC50 was over 1000 nM.
Take `CC(=O)N1N=C(c2cc(Cl)ccc2F)S[C@]12c1ccccc1OC[C@@H]2CCN` [compound 1805]: the EC50 was over 1000 nM.
As to `CC(=O)N1N=C(c2ccc(F)cc2F)S[C@]12c1ccccc1OC[C@@H]2CCN` [compound 1816], the EC50 is over 1000 nM.
`CC(=O)N1N=C(c2cc(F)cc(F)c2)S[C@@]12c1ccccc1OC[C@H]2CCN` [compound 1815]: the EC50 was at most 500 nM.

The same test, now with this note: Homo sapiens, HCT-116, 16 h, table of Example 1901; HCT116 cells, 16 hours with drug; read-out: EC50 (nM) Range.
`CO[C@@H](C)C(=O)N1N=C(c2cc(F)ccc2F)S[C@@]12c1cc(F)cc(F)c1OC[C@H]2CCN` [compound 1907]: the EC50 was at most 500 nM.

The same test, now with this note: Homo sapiens, HCT-116, 16 h, table of Example 2001; HCT116 cells, 16 hours with drug; read-out: EC50 (nM) Range.
With `COCC(=O)N1N=C(c2cc(F)ccc2F)S[C@]12c1ccccc1OC[C@@H]2CCN` [compound 2003], the EC50 is at most 500 nM.

The same test, now with this note: Homo sapiens, HCT-116, 16 h, table of Example 2101; HCT116 cells, 16 hours with drug; read-out: EC50 (nM) Range.
With `CCOC(=O)N1N=C(c2cc(F)ccc2F)S[C@@]12c1ccccc1OC[C@H]2CCN` [compound 2103], the EC50 is over 1000 nM.
Regarding `CCOC(=O)N1N=C(c2cc(F)ccc2F)S[C@]12c1cc(F)ccc1OC[C@@H]2CCN` [compound 2102], the EC50 is over 1000 nM.

The test is the same for the next values; noted with them: Homo sapiens, HCT-116, 16 h, table of Example 2201; HCT116 cells, 16 hours with drug; read-out: EC50 (nM) Range.
Turning to `CN(C)C(=O)N1N=C(c2cc(F)ccc2F)S[C@]12c1ccccc1OC[C@@H]2CCN` [compound 2204], the EC50 was at most 500 nM.
`NCC[C@@H]1COc2ccccc2[C@@]12SC(c1cc(F)ccc1F)=NN2C(=O)N1CCOCC1` [compound 2205]: the EC50 is over 1000 nM.

The same test, now with this note: Homo sapiens, HCT-116, 16 h, table of Example 2401; HCT116 cells, 16 hours with drug; read-out: EC50 (nM) Range.
With `CC(=O)N1N=C(c2cc(F)ccc2F)S[C@]12CCNc1ccccc12` [compound 2402], the EC50 was over 1000 nM.
Take `CC(=O)N1N=C(c2cc(F)ccc2F)S[C@@]12CCNc1ccccc12` (single isomer, unassigned) [compound 2401]: the EC50 is at most 500 nM.

The same test, now with this note: Homo sapiens, HCT-116, 16 h, table of Example 2701; HCT116 cells, 16 hours with drug; read-out: EC50 (nM) Range.
For `CC(=O)N1N=C(c2cc(F)ccc2F)S[C@]12c1ccccc1NC[C@H]2CCN` [compound 2701], the EC50 was at most 500 nM.

Still in this test, the particulars now being: Homo sapiens, HCT-116, 16 h, table of Example 2901; HCT116 cells, 16 hours with drug; read-out: EC50 (nM) Range.
As to `CC(=O)N1N=C(c2cc(F)ccc2F)S[C@]12c1cc(F)ccc1NC[C@@H]2CCN` [compound 2904], the EC50 is over 1000 nM.

The test is the same for the next values; noted with them: Homo sapiens, HCT-116; read-out: EC50 (nM) Range.
In the case of `Fc1ccc(F)c(C2=NN3CCC4CNc5ccccc5C43S2)c1` (stereo not shown) [compound 3101], the EC50 was over 1000 nM.

Still in this test, the particulars now being: Homo sapiens, HCT-116; table of Example 2001; HCT116 cells, 16 hours with drug; read-out: EC50 (nM) Range.
For `NCC[C@@H]1COc2ccccc2[C@@]12SC(c1cc(F)ccc1F)=NN2C(=O)CF` [compound 2002], the EC50 is at most 500 nM.

The values above are taken from patent US8796460B2, “Compounds for inhibiting KSP kinesin activity” (Mercky Sharp & Dohme Corp., priority 2007, dated 2014).
